Experimental data reported in patent publication US9624229B2, “Pyrimidine-2-amine compounds and their use as inhibitors of JAK kinases” (Rigel Pharmaceuticals, Inc., priority 2008, dated 2017).
Where two headings read alike, the source gives them in different places.

Target: Ba/F3 V617F cells (Homo sapiens, UniProt O60674, V617F, cells depend on it)
Assay: Proliferation assay (Cell Titer-Glo, 72 h) utilizing Ba/F3 V617F cells
Format: cell-based, mouse
How it was run: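 Ba/F3 V617F cells in RPMI/10% FBS, 1×10^5 cells/mL, exposed in duplicate to 3-fold serial compound dilutions (top 5 mM DMSO stock, diluted 1:250, added as 2× solution in 5% FBS medium) for 72 h at 37 °C. Viability by Cell Titer-Glo luminescence; IC50 reported.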

[1] = Ba/F3 V617F cells, proliferation, level of activity given as class symbol, read-out: IC50 (the source's name)
[2] = Ba/F3 V617F cells, proliferation, level of activity to inhibit JAK2, read-out: IC50 (the source's name)

Sequence of Ba/F3 V617F cells (O60674 whole entry V617F): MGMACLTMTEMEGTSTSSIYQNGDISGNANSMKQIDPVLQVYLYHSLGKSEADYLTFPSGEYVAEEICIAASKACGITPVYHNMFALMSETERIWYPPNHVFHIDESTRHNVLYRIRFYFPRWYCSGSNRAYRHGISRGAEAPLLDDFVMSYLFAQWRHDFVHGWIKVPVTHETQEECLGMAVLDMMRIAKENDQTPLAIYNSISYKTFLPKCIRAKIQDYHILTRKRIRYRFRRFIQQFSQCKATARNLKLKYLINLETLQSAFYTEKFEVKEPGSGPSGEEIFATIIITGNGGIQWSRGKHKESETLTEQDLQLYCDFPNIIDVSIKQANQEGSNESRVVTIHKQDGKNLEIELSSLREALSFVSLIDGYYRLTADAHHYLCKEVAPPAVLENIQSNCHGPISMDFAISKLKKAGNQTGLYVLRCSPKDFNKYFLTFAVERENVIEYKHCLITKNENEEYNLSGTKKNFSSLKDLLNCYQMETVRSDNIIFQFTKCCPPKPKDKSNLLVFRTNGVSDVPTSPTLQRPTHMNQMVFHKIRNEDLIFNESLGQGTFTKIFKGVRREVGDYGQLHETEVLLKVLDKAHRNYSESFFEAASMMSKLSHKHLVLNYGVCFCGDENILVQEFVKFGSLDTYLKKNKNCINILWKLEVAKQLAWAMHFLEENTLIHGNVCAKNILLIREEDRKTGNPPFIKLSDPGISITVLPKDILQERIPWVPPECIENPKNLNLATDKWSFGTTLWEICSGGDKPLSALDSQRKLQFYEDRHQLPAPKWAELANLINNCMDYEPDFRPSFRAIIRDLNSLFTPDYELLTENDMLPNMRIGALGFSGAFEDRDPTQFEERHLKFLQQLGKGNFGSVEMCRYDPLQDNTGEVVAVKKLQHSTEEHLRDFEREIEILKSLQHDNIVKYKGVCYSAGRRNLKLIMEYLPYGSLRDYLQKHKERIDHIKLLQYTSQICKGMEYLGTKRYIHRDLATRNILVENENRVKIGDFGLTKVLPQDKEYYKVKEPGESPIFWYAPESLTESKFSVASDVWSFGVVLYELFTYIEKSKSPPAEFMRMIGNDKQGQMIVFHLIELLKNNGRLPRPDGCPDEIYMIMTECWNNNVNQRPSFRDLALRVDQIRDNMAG

GI50 [2] [nM] | SMILES | further results
< 1000 | CN(C)c1ccc(-c2ccnc(Nc3ccc(N4C[C@@H]5C[C@H]4CN5C)c(F)c3)n2)cn1 [compound 7, 4-(6-(N,N-dimethylamino)pyridin-3-yl)-N-(3-fluoro-4-((1S,4S)-5-methyl-2,5-diazabicyclo[2.2.1]heptan-2-yl)phenyl)pyrimidin-2-amine] | –
1000 to 10000 | CN(C)c1nc(-c2ccnc(Nc3ccc(N4C[C@@H]5C[C@H]4CN5C)c(F)c3)n2)cs1 [compound 176, 4-(2-(dimethylamino)thiazol-4-yl)-N-(3-fluoro-4-((1S,4S)-5-methyl-2,5-diazabicyclo[2.2.1]heptan-2-yl)phenyl)pyrimidin-2-amine] | –
1000 to 10000 | CN1C[C@@H]2C[C@H]1CN2c1ccc(Nc2nccc(-c3cc[nH]c3)n2)cc1 [compound 170, 4-(1H-pyrrol-3-yl)-N-(4-((1S,4S)-5-methyl-2,5-diazabicyclo[2.2.1]heptan-2-yl)phenyl)pyrimidin-2-amine] | –
< 1000 | CC(=O)Nc1ccc(-c2ccnc(Nc3ccc(N4C[C@@H]5C[C@H]4CN5C)c(C)c3)n2)cn1 [compound 132, 4-(6-(acetamido)pyridin-3-yl)-N-(3-methyl-4-((1S,4S)-5-methyl-2,5-diazabicyclo[2.2.1]heptan-2-yl)phenyl)pyrimidin-2-amine] | –
< 1000 | CN1C[C@@H]2C[C@H]1CN2c1ccc(Nc2nccc(-c3cnc4c(c3)OC(C)(C)C(=O)N4)n2)cc1C#N [compound 53, 4-(2,2-dimethyl-3-oxo-3,4-dihydro-2H-pyrido[3,2-b][1,4]oxazin-7-yl)-N-(3-cyano-4-((1S,4S)-5-methyl-2,5-diazabicyclo[2.2.1]heptan-2-yl)phenyl)pyrimidin-2-amine] | –
< 1000 | Cc1cc(Nc2nccc(-c3ccc(N4C[C@@H]5C[C@H]4CN5c4ccc(F)cc4)nc3)n2)ccc1N1CCN(C)CC1 [compound 13, 4-(6-((1S,4S)-5-(4-fluorophenyl)-2,5-diazabicyclo-[2.2.1]-heptan-2-yl)pyridin-3-yl)-N-(3-methyl-4-(4-methyl-piperazin-1-yl)phenyl)-pyrimidin-2-amine] | –
< 1000 | CCCNc1ncc(-c2ccnc(Nc3ccc(N4C[C@@H]5C[C@H]4CN5C)c(C)c3)n2)cn1 [compound 92, 4-(2-(propyl)aminopyrimidin-5-yl)-N-(3-methyl-4-((1S,4S)-5-methyl-2,5-diazabicyclo[2.2.1]heptan-2-yl)phenyl)pyrimidin-2-amine] | –
< 1000 | Cc1cc(Nc2nccc(-c3cnc4c(c3)OC(C)(C)C(=O)N4)n2)ccc1N1C[C@@H]2C[C@H]1CN2C [compound 130, 4-(2,2-dimethyl-3-oxo-3,4-dihydro-2H-pyrido[3,2-b][1,4]oxazin-7-yl)-N-(3-methyl-4-((1S,4S)-5-methyl-2,5-diazabicyclo[2.2.1]heptan-2-yl)phenyl)pyrimidin-2-amine] | –
< 1000 | CN1C2CCC1CN(c1ccc(Nc3nccc(-c4ccc(N)nc4)n3)cc1)C2 [compound 158, 4-(6-aminopyridin-3-yl)-N-(4-(8-methyl-3,8-diazabicyclo[3.2.1]octan-3-yl)phenyl)pyrimidin-2-amine] | –

Further lines, the compound ahead of its results:

SMILES | GI50 [2] [nM] | further results
CN1C[C@@H]2C[C@H]1CN2c1ccc(Nc2nccc(-c3ccc(N4CCOCC4)nc3)n2)cc1Cl [compound 255, 4-(6-(morpholin-4-yl)pyridin-3-yl)-N-(3-chloro-4-((1S,4S)-5-methyl-2,5-diazabicyclo[2.2.1]heptan-2-yl)phenyl)pyrimidin-2-amine] | – | GI50 [1]: < 1000 nM
CCOCCCNc1ccc(-c2ccnc(Nc3ccc(N4C[C@@H]5C[C@H]4CN5C)c(C)c3)n2)cn1 [compound 186, 4-(6-(3-ethoxypropyl)aminopyridin-3-yl)-N-(3-methyl-4-((1S,4S)-5-methyl-2,5-diazabicyclo[2.2.1]heptan-2-yl)phenyl)pyrimidin-2-amine] | < 1000 | –
Cc1cc(Nc2nccc(-c3ccc4ncn(C)c4c3)n2)ccc1N1CCN2CCC1C2 (stereo not shown) [compound 122, (1-methylbenzimidazol-6-yl)-N-(3-methyl-4-(1,4-diazabicyclo[3.2.1]octan-4-yl)phenyl)pyrimidin-2-amine] | < 1000 | –
Cc1cc(Nc2nccc(-c3ccc(N(C)C)nc3)n2)ccc1N1C[C@@H]2C[C@H]1CN2C [compound 1, 4-(6-(N,N-dimethylamino)pyridin-3-yl)-N-(3-methyl-4-((1S,4S)-5-methyl-2,5-diazabicyclo[2.2.1]heptan-2-yl)phenyl)pyrimidin-2-amine] | < 1000 | –
CCC(=O)N1C[C@@H]2C[C@H]1CN2c1ccc(Nc2nccc(-c3cnc4c(c3)OC(C)(C)C(=O)N4)n2)cc1C [compound 28, 4-(2,2-dimethyl-3-oxo-3,4-dihydro-2H-pyrido[3,2-b][1,4]oxazin-7-yl)-N-(3-methyl-4-((1S,4S)-5-(ethylcarbonyl)-2,5-diazabicyclo[2.2.1]heptan-2-yl)phenyl)pyrimidin-2-amine] | < 1000 | –
CN1C[C@@H]2C[C@H]1CN2c1ccc(Nc2nccc(-c3ccc(NCCN4CCOCC4)nc3)n2)cc1F [compound 70, 4-(6-(2-(morpholin-4-yl)ethyl)aminopyridin-3-yl)-N-(3-fluoro-4-((1S,4S)-5-methyl-2,5-diazabicyclo[2.2.1]heptan-2-yl)phenyl)pyrimidin-2-amine] | < 1000 | –
Cc1cc(Nc2nccc(-c3ccc4ncn(C)c4c3)n2)ccc1N1C[C@@H]2C[C@H]1CN2C [compound 107, 4-(1-methylbenzimidazol-6-yl)-N-(3-methyl-4-((1S,4S)-5-methyl-2,5-diazabicyclo[2.2.1]heptan-2-yl)phenyl)pyrimidin-2-amine] | < 1000 | –
Cc1cc(Nc2nccc(-c3ccc(-c4ncc(-c5ccc(N(C)C)cc5)o4)cc3)n2)ccc1N1C[C@@H]2C[C@H]1CN2C [compound 104, 4-(4-(5-(4-dimethylaminophenyl)oxazol-2-yl)phenyl)-N-(3-methyl-4-((1S,4S)-5-methyl-2,5-diazabicyclo[2.2.1]heptan-2-yl)phenyl)pyrimidin-2-amine] | 1000 to 10000 | –
CN1C[C@@H]2C[C@H]1CN2c1ccc(Nc2nccc(-c3ccc(NC(=O)NC4CC4)cc3)n2)cc1 [compound 139, 4-(4-(3-cyclopropylureido)phenyl)-N-(4-((1S,4S)-5-methyl-2,5-diazabicyclo[2.2.1]heptan-2-yl)phenyl)pyrimidin-2-amine] | < 1000 | –
CN1C[C@@H]2C[C@H]1CN2c1ccc(Nc2nccc(-c3ccc4c(ccn4-c4ccncc4)c3)n2)cc1F [compound 233, 4-(1-(pyridin-4-yl)-1H-indol-5-yl)-N-(3-fluoro-4-((1S,4S)-5-methyl-2,5-diazabicyclo[2.2.1]heptan-2-yl)phenyl)pyrimidin-2-amine] | – | GI50 [1]: < 1000 nM
Cc1cc(Nc2nccc(-c3ccc(NS(C)(=O)=O)nc3)n2)cnc1N1C[C@@H]2C[C@H]1CN2C [compound 154, 4-(6-(methylsulfonylamino)pyridin-3-yl)-N-(5-methyl-6-((1S,4S)-5-methyl-2,5-diazabicyclo[2.2.1]heptan-2-yl)pyridin-3-yl)pyrimidin-2-amine] | – | GI50 (inhibition of JAK2 activity, proliferation of Ba/F3 V617F cells, read-out: IC50 (the source's name)): > 20000 nM
CN1C[C@@H]2C[C@H]1CN2c1ccc(Nc2nccc(-c3ccc(NC4CCCCC4)nc3)n2)cc1F [compound 79, 4-(6-(cyclohexylamino)pyridin-3-yl)-N-(3-fluoro-4-((1S,4S)-5-methyl-2,5-diazabicyclo[2.2.1]heptan-2-yl)phenyl)pyrimidin-2-amine] | < 1000 | –
Cc1cc(Nc2nccc(-c3ccc(NC(=O)CN(C)C)nc3)n2)ccc1N1C[C@@H]2C[C@H]1CN2C [compound 152, 4-(6-(2-(dimethylamino)acetamido)-pyridin-3-yl)-N-(3-methyl-4-((1S,4S)-5-methyl-2,5-diazabicyclo[2.2.1]heptan-2-yl)phenyl)pyrimidin-2-amine] | < 1000 | –
CN(C)c1ccc(-c2ccnc(Nc3ccc(N4C[C@@H]5C[C@H]4CN5C)c(C(F)(F)F)c3)n2)cn1 [compound 96, 4-(6-(dimethylamino)pyridin-3-yl)-N-(3-trifluoromethyl-4-((1S,4S)-5-methyl-2,5-diazabicyclo[2.2.1]heptan-2-yl)phenyl)pyrimidin-2-amine] | < 1000 | –
Cc1cc(Nc2nccc(-c3cnc4c(c3)OCCN4)n2)ccc1N1C[C@@H]2C[C@H]1CN2C [compound 86, 4-(3,4-dihydro-2H-pyrido[3,2-b][1,4]oxazin-7-yl)-N-(3-methyl-4-((1S,4S)-5-methyl-2,5-diazabicyclo[2.2.1]heptan-2-yl)phenyl)pyrimidin-2-amine] | < 1000 | –
CN1C[C@@H]2C[C@H]1CN2c1ccc(Nc2nccc(-c3ccnc(N4CCOCC4)c3F)n2)cc1F [compound 39, 4-(3-fluoro-2-(morpholin-4-yl)pyridin-4-yl)-N-(3-fluoro-4-((1S,4S)-5-methyl-2,5-diazabicyclo[2.2.1]heptan-2-yl)phenyl)pyrimidin-2-amine] | 1000 to 10000 | –
CN1C[C@@H]2C[C@H]1CN2c1ccc(Nc2nccc(-c3cncc(S(C)(=O)=O)c3)n2)cc1C(F)(F)F [compound 102, 4-(5-(methyl)sulfonylpyridin-3-yl)-N-(3-trifluoromethyl-4-((1S,4S)-5-methyl-2,5-diazabicyclo[2.2.1]heptan-2-yl)phenyl)pyrimidin-2-amine] | < 1000 | –
CC(=O)N1C[C@@H]2C[C@H]1CN2c1ccc(Nc2nccc(-c3ccc(N4CCOCC4)nc3)n2)cc1Cl [compound 259, 4-(6-(morpholin-4-yl)pyridin-3-yl)-N-(3-chloro-4-((1S,4S)-5-acetyl-2,5-diazabicyclo[2.2.1]heptan-2-yl)phenyl)pyrimidin-2-amine] | – | GI50 [1]: < 1000 nM
Cc1cc(Nc2ncc(C)c(-c3ccc(N(C)C)nc3)n2)ccc1N1C[C@@H]2C[C@H]1CN2C [compound 2, 4-(6-(N,N-dimethylamino)pyridin-3-yl)-5-methyl-N-(3-methyl-4-((1S,4S)-5-methyl-2,5-diazabicyclo[2.2.1]heptan-2-yl)phenyl)pyrimidin-2-amine] | < 1000 | –
